In patent publication US20080200454A1, “CARBON-LINKED TETRAHYDRO-PYRAZOLO-PYRIDINE MODULATORS OF CATHEPSIN S” (priority 2007, published 2008) one finds IC50 data, which are given here for 22 compounds.

Sequence of Recombinant human cathepsin S (CatS) (P25774 115-331): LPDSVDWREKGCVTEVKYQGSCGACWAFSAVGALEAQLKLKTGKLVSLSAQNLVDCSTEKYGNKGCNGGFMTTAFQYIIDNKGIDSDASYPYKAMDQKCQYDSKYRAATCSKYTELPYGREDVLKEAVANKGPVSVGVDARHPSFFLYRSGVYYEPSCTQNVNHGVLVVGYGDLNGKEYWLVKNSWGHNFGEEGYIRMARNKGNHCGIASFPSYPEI

The first experiment has as its target Recombinant human cathepsin S (CatS) (Homo sapiens, UniProt P25774). Put plainly: Recombinant human cathepsin S (CatS) inhibition assay, fluorogenic substrate Z-Valine-Valine-Arginine-AMC.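 Also: Baculovirus-expressed CatS in pH 5.0 sodium acetate buffer with DTT and NaCl, fluorescence read each minute over 20 min, inhibition derived from rate slope.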
Conditions: not given
A word on the IC50: it is the point on the concentration scale where inhibition reaches its midpoint. With `CS(=O)(=O)N1CCc2c(c(-c3ccc(Cl)c(C#Cc4ccc(CNCc5ccc(Cl)cc5)cc4)c3)nn2CCCN2CCC(c3ccccn3)CC2)C1` [Example 177, 1-{4-[(2-Chloro-5-{5-(methylsulfonyl)-1-[3-(4-pyridin-2-ylpiperidin-1-yl)propyl]-4,5,6,7-tetrahydro-1H-pyrazolo[4,3-c]pyridin-3-yl}phenyl)ethynyl]phenyl}-N-[(4-chlorophenyl)methyl]methanamine], the IC50 amounted to 10 nM. On the same count and under the same terms, the figure for `CS(=O)(=O)N1CCc2c(c(-c3ccc(Cl)c(C#Cc4ccc(CNCc5ccc(Cl)cc5)cc4)c3)nn2CCCN2CCC(c3ccccc3)CC2)C1` [Example 178, 1-{4-[(2-Chloro-5-{5-(methylsulfonyl)-1-[3-(4-phenylpiperidin-1-yl)propyl]-4,5,6,7-tetrahydro-1H-pyrazolo[4,3-c]pyridin-3-yl}phenyl)ethynyl]phenyl}-N-[(4-chlorophenyl)methyl]methanamine] is 10 nM.

`CS(=O)(=O)N1CCc2c(c(-c3ccc(Cl)c(C#Cc4ccc(CNCc5ccc(Cl)cc5)cc4)c3)nn2CCCN2CCN(c3ccccn3)CC2)C1` [Example 179, 1-{4-[(2-Chloro-5-{5-(methylsulfonyl)-1-[3-(4-pyridin-2-ylpiperazin-1-yl)propyl]-4,5,6,7-tetrahydro-1H-pyrazolo[4,3-c]pyridin-3-yl}phenyl)ethynyl]phenyl}-N-[(4-chlorophenyl)methyl]methanamine]: the IC50 is 20 nM. The same measure, in the same setting: in the case of `CS(=O)(=O)N1CCc2c(c(-c3ccc(Cl)c(C#Cc4ccc(CNCc5ccc(Cl)cc5)cc4)c3)nn2CCCN2CCN(c3ccccc3)CC2)C1` [Example 180, 1-{4-[(2-Chloro-5-{5-(methylsulfonyl)-1-[3-(4-phenylpiperazin-1-yl)propyl]-4,5,6,7-tetrahydro-1H-pyrazolo[4,3-c]pyridin-3-yl}phenyl)ethynyl]phenyl}-N-[(4-chlorophenyl)methyl]methanamine] it was 20 nM. With `CS(=O)(=O)N1CCc2c(c(-c3ccc(Cl)c(C#Cc4ccc(CNCc5ccc(Cl)cc5)cc4)c3)nn2CCCN2CCCCC2)C1` [Example 181, 1-[4-({2-Chloro-5-[5-(methylsulfonyl)-1-(3-piperidin-1-ylpropyl)-4,5,6,7-tetrahydro-1H-pyrazolo[4,3-c]pyridin-3-yl]phenyl}ethynyl)phenyl]-N-[(4-chlorophenyl)methyl]methanamine], the concentration for half-maximal inhibition (IC50) turned out to be 60 nM. On the same count and under the same terms, the figure for `COC(=O)[C@@H]1Cc2ccc(C#Cc3cc(-c4nn(CCCN5CCOCC5)c5c4CN(S(C)(=O)=O)CC5)ccc3Cl)cc2CN1C(=O)OC(C)(C)C` [Example 190, 2-(1,1-Dimethylethyl) 3-methyl (3S)-7-({2-chloro-5-[5-(methylsulfonyl)-1-(3-morpholin-4-ylpropyl)-4,5,6,7-tetrahydro-1H-pyrazolo[4,3-c]pyridin-3-yl]phenyl}ethynyl)-3,4-dihydroisoquinoline-2,3(1H)-dicarboxylate] is 1110 nM. Still for that read-out and setting: in the case of `CC(C)(C)OC(=O)N1Cc2cc(C#Cc3cc(-c4nn(CCCN5CCOCC5)c5c4CN(S(C)(=O)=O)CC5)ccc3Cl)ccc2C[C@H]1C(=O)O` [Example 191, (3S)-7-({2-Chloro-5-[5-(methylsulfonyl)-1-(3-morpholin-4-ylpropyl)-4,5,6,7-tetrahydro-1H-pyrazolo[4,3-c]pyridin-3-yl]phenyl}ethynyl)-2-{[(1,1-dimethylethyl)oxy]carbonyl}-1,2,3,4-tetrahydroisoquinoline-3-carboxylic acid] it was 630 nM; in that of `CS(=O)(=O)N1CCc2c(c(-c3ccc(Cl)c(C#Cc4ccc5c(c4)CN[C@H](C(=O)O)C5)c3)nn2CCCN2CCOCC2)C1` [Example 199, (3S)-7-({2-Chloro-5-[5-(methylsulfonyl)-1-(3-morpholin-4-ylpropyl)-4,5,6,7-tetrahydro-1H-pyrazolo[4,3-c]pyridin-3-yl]phenyl}ethynyl)-1,2,3,4-tetrahydroisoquinoline-3-carboxylic acid], 60 nM.

Staying with this experiment, now noted: CatS IC50.
With `C[C@H]1COCCN1CCCn1nc(-c2ccc(Cl)c(C#Cc3ccc(CNCc4ccc(Cl)cc4)cc3)c2)c2c1CCN(S(C)(=O)=O)C2` [Example 182, 1-[4-({2-Chloro-5-[1-{3-[(3S)-3-methylmorpholin-4-yl]propyl}-5-(methylsulfonyl)-4,5,6,7-tetrahydro-1H-pyrazolo[4,3-c]pyridin-3-yl]phenyl}ethynyl)phenyl]-N-[(4-chlorophenyl)methyl]methanamine], the IC50 came to 80 nM.

For the compound `CS(=O)(=O)N1CCc2c(c(-c3ccc(Cl)c(C#Cc4ccc(CNCc5ccc(Cl)cc5)cc4)c3)nn2CCCN2CCSCC2)C1` [Example 183, 1-[4-({2-Chloro-5-[5-(methylsulfonyl)-1-(3-thiomorpholin-4-ylpropyl)-4,5,6,7-tetrahydro-1H-pyrazolo[4,3-c]pyridin-3-yl]phenyl}ethynyl)phenyl]-N-[(4-chlorophenyl)methyl]methanamine], the IC50 came to 80 nM. On the same count and under the same terms, the figure for `CS(=O)(=O)N1CCc2c(c(-c3ccc(Cl)c(C#Cc4cccc(C=O)c4)c3)nn2CCCN2CCOCC2)C1` [Example 184, 3-({2-Chloro-5-[5-(methylsulfonyl)-1-(3-morpholin-4-ylpropyl)-4,5,6,7-tetrahydro-1H-pyrazolo[4,3-c]pyridin-3-yl]phenyl}ethynyl)benzaldehyde] is 320 nM; for `CS(=O)(=O)N1CCc2c(c(-c3ccc(Cl)c(C#Cc4cccc(CNCC5CCOCC5)c4)c3)nn2CCCN2CCOCC2)C1` [Example 185, 1-[3-({2-Chloro-5-[5-(methylsulfonyl)-1-(3-morpholin-4-ylpropyl)-4,5,6,7-tetrahydro-1H-pyrazolo[4,3-c]pyridin-3-yl]phenyl}ethynyl)phenyl]-N-(tetrahydro-2H-pyran-4-ylmethyl)methanamine] it is 520 nM; for `CS(=O)(=O)N1CCc2c(c(-c3ccc(Cl)c(CCc4cccc(CNCC5CCOCC5)c4)c3)nn2CCCN2CCOCC2)C1` [Example 186, 1-[3-(2-{2-Chloro-5-[5-(methylsulfonyl)-1-(3-morpholin-4-ylpropyl)-4,5,6,7-tetrahydro-1H-pyrazolo[4,3-c]pyridin-3-yl]phenyl}ethyl)phenyl]-N-(tetrahydro-2H-pyran-4-ylmethyl)methanamine] it is 690 nM. Same read-out and setting: in the case of `CS(=O)(=O)N1CCc2c(c(-c3ccc(Cl)c(C#Cc4cccc(CNCc5ccccn5)c4)c3)nn2CCCN2CCOCC2)C1` [Example 187, 1-[3-({2-Chloro-5-[5-(methylsulfonyl)-1-(3-morpholin-4-ylpropyl)-4,5,6,7-tetrahydro-1H-pyrazolo[4,3-c]pyridin-3-yl]phenyl}ethynyl)phenyl]-N-(pyridin-2-ylmethyl)methanamine] it was 150 nM; in that of `COC(=O)CNCc1cccc(C#Cc2cc(-c3nn(CCCN4CCOCC4)c4c3CN(S(C)(=O)=O)CC4)ccc2Cl)c1` [Example 188, Methyl N-{[3-({2-chloro-5-[5-(methylsulfonyl)-1-(3-morpholin-4-ylpropyl)-4,5,6,7-tetrahydro-1H-pyrazolo[4,3-c]pyridin-3-yl]phenyl}ethynyl)phenyl]methyl}glycinate], 550 nM; in that of `CS(=O)(=O)N1CCc2c(c(-c3ccc(Cl)c(C#Cc4cccc(CNCC(=O)O)c4)c3)nn2CCCN2CCOCC2)C1` [Example 189, N-{[3-({2-Chloro-5-[5-(methylsulfonyl)-1-(3-morpholin-4-ylpropyl)-4,5,6,7-tetrahydro-1H-pyrazolo[4,3-c]pyridin-3-yl]phenyl}ethynyl)phenyl]methyl}glycine], 140 nM.

As to `CNC(=O)[C@@H]1Cc2ccc(C#Cc3cc(-c4nn(CCCN5CCOCC5)c5c4CN(S(C)(=O)=O)CC5)ccc3Cl)cc2CN1` [Example 192, (3S)-7-({2-Chloro-5-[5-(methylsulfonyl)-1-(3-morpholin-4-ylpropyl)-4,5,6,7-tetrahydro-1H-pyrazolo[4,3-c]pyridin-3-yl]phenyl}ethynyl)-N-methyl-1,2,3,4-tetrahydroisoquinoline-3-carboxamide], the IC50 was 80 nM. Same read-out and setting: the figure for `CN(C)C(=O)[C@@H]1Cc2ccc(C#Cc3cc(-c4nn(CCCN5CCOCC5)c5c4CN(S(C)(=O)=O)CC5)ccc3Cl)cc2CN1` [Example 193, (3S)-7-({2-Chloro-5-[5-(methylsulfonyl)-1-(3-morpholin-4-ylpropyl)-4,5,6,7-tetrahydro-1H-pyrazolo[4,3-c]pyridin-3-yl]phenyl}ethynyl)-N,N-dimethyl-1,2,3,4-tetrahydroisoquinoline-3-carboxamide] is 50 nM; for `CS(=O)(=O)N1CCc2c(c(-c3ccc(Cl)c(C#Cc4ccc5c(c4)CN[C@H](C(=O)N4CCOCC4)C5)c3)nn2CCCN2CCOCC2)C1` [Example 194, (3S)-7-({2-Chloro-5-[5-(methylsulfonyl)-1-(3-morpholin-4-ylpropyl)-4,5,6,7-tetrahydro-1H-pyrazolo[4,3-c]pyridin-3-yl]phenyl}ethynyl)-3-(morpholin-4-ylcarbonyl)-1,2,3,4-tetrahydroisoquinoline] it is 20 nM; for `CS(=O)(=O)N1CCc2c(c(-c3ccc(Cl)c(C#Cc4ccc5c(c4)CN[C@@H](C(=O)N4CCCC4)C5)c3)nn2CCCN2CCOCC2)C1` [Example 196, (3R)-7-({2-Chloro-5-[5-(methylsulfonyl)-1-(3-morpholin-4-ylpropyl)-4,5,6,7-tetrahydro-1H-pyrazolo[4,3-c]pyridin-3-yl]phenyl}ethynyl)-3-(pyrrolidin-1-ylcarbonyl)-1,2,3,4-tetrahydroisoquinoline] it is 650 nM. On the same count and under the same terms, the figure for `CS(=O)(=O)N1CCc2c(c(-c3ccc(Cl)c(C#Cc4ccc5c(c4)CN[C@@H](C(N)=O)C5)c3)nn2CCCN2CCOCC2)C1` [Example 197, (3R)-7-({2-Chloro-5-[5-(methylsulfonyl)-1-(3-morpholin-4-ylpropyl)-4,5,6,7-tetrahydro-1H-pyrazolo[4,3-c]pyridin-3-yl]phenyl}ethynyl)-1,2,3,4-tetrahydroisoquinoline-3-carboxamide] is 200 nM; for `COC(=O)[C@@H]1Cc2ccc(C#Cc3cc(-c4nn(CCCN5CCOCC5)c5c4CN(S(C)(=O)=O)CC5)ccc3Cl)cc2CN1` [Example 198, Methyl (3S)-7-({2-chloro-5-[5-(methylsulfonyl)-1-(3-morpholin-4-ylpropyl)-4,5,6,7-tetrahydro-1H-pyrazolo[4,3-c]pyridin-3-yl]phenyl}ethynyl)-1,2,3,4-tetrahydroisoquinoline-3-carboxylate] it is 70 nM.
